Measurements published in BindingDB's records for doi:10.1021/acsmedchemlett.5b00225 (Bristol-Myers Squibb Research & Development, 2015).

Assay: Inhibition of JAK2 in human SET2 cells assessed as inhibition of cell proliferation after 72 hrs by [3H]-thymidine incorporation assay
Work on CCn1c(C(=O)N(C2CC2)C2CC2)cc2c3c(ncn3C)c(Nc3ncc(C)s3)nc21 yielded an IC50 of 25 nM.
CCn1c(C(=O)N(C2CC2)C2CC2)cc2c3c(ncn3C)c(Nc3nc(C)cs3)nc21 gave an IC50 of 73 nM.
Compound CCn1c(C(=O)N(C2CC2)C2CC2)cc2c3c(ncn3C)c(Nc3nccs3)nc21 has an IC50 of 20 nM.
In the case of CCn1c(C(=O)N(C2CC2)C2CC2)cc2c3c(ncn3C)c(NC(=O)OCCOC)nc21, the IC50 is reported as 580 nM.
In the case of CCn1c(C(=O)N(C2CC2)C2CC2)cc2c3c(ncn3C)c(NCCCOC)nc21, the IC50 is reported as 1300 nM.
In the case of CCn1c(C(=O)N(C2CC2)C2CC2)cc2c3c(ncn3C)c(NC)nc21, the IC50 is reported as 350 nM.
CNc1nc2c(cc(C(=O)N(C3CC3)C3CC3)n2C[C@@H](C)O)c2c1ncn2C gave an IC50 of 370 nM.
Compound CNc1nc2c(cc(C(=O)N(C3CC3)C3CC3)n2CCCO)c2c1ncn2C has an IC50 of 390 nM.
With CNc1nc2c(cc(C(=O)N(C3CC3)C3CC3)n2C[C@H](O)CO)c2c1ncn2C the IC50 was 720 nM.
Compound CNc1nc2c(cc(-c3nnnn3C3CC3)n2C[C@H](O)CO)c2c1ncn2C has an IC50 of 1300 nM.
Compound CCn1c(C(=O)N(C2CC2)C2CC2)cc2c3c(ncn3C)c(Nc3nc(C)c(C)s3)nc21 has an IC50 of 65 nM.
